{"source": "patent US20030139296A1", "about": "(priority 2000, published 2003)", "key": {"Magnaporthe grisea KJ201 [1]": {"test_system": "Magnaporthe grisea KJ201", "type": "in vivo", "settings": "rice blast; for Degree of the disease severity: 1 week after inoculation, scale 0~10; for Control value(%): versus Tween 80-treated rice"}, "[2]": {"test_system": "PR1, PBZ1 and POX22.3 defense genes"}, "[3]": {"test_system": "PR1, PBZ1 and POX22.3 defense genes", "settings": "FIG. 1"}, "[4]": {"test_system": "PAL, APX and HMGR defense genes", "settings": "tomato stem soaked in aqueous solution at 50 u uM; FIG. 4"}, "[5]": {"test_system": "PR1, PBZ1 and POX22.3 defense genes", "settings": "in vivo"}, "Magnaporthe grisea KJ201 [6]": {"test_system": "Magnaporthe grisea KJ201", "settings": "rice blast; for Degree of the disease severity: 28° C., 1 day, inoculated at fourth-leaf stage, scale 0~10; for Control value(%): versus distilled water-treated rice, HCl"}, "[7]": {"test_system": "Xanthomonas oryzae pv. oryzae KX021", "settings": "bacterial leaf blight in rice; for Degree of the disease severity: distance from inoculated points to symptoms; for Control value(%): versus Tween 80-treated rice, HCl"}, "defense genes in plants": {"test_system": "defense genes in plants", "settings": "compared among vitamin B1, vitamin B6 and vitamin C"}, "[8]": {"settings": "20 mM + Tween 80 (250 ppm) spray"}, "[9]": {"settings": "50 mM + Tween 80 (250 ppm) spray"}}, "note": "Structures can show the parent of a compound that is named as a salt. Where two headings read alike, the source gives them in different places."}
{"smiles": "Cc1ncc(C[n+]2csc(CCO)c2C)c(N)n1", "note": "[Vitamin B1 HCl, thiamine HCl]", "values": [{"measurement": "Degree of the disease severity", "setting": "Magnaporthe grisea KJ201 [1]; 5 mM + Tween 80 (250 ppm) spray, inoculated 4 hours after treatment", "result": "6.5 ± 0.6"}, {"measurement": "Control value(%)", "setting": "Magnaporthe grisea KJ201 [1]; 5 mM + Tween 80 (250 ppm) spray, HCl", "result": "21.2 ± 7.2", "unit": "%"}, {"measurement": "Control value(%)", "setting": "Magnaporthe grisea KJ201 [1]; 5 mM + Tween 80 (250 ppm) spray, listed as vitamin B1 hydrochloride, HCl", "result": "not more than 30%"}, {"measurement": "Degree of the disease severity", "setting": "Magnaporthe grisea KJ201 [1]; 10 mM + Tween 80 (250 ppm) spray", "result": "5.8 ± 1.5"}, {"measurement": "Control value(%)", "setting": "Magnaporthe grisea KJ201 [1]; 10 mM + Tween 80 (250 ppm) spray, HCl", "result": "30.3 ± 18.2", "unit": "%"}, {"measurement": "Control value(%)", "setting": "Magnaporthe grisea KJ201 [1]; 10 mM + Tween 80 (250 ppm) spray, listed as vitamin B1 hydrochloride, HCl", "result": "not more than 30%"}, {"measurement": "Degree of the disease severity", "setting": "Magnaporthe grisea KJ201 [1]; [8]", "result": "2.3 ± 1.4"}, {"measurement": "Control value(%)", "setting": "Magnaporthe grisea KJ201 [1]; [8]", "result": "72.7 ± 17.0", "unit": "%"}, {"measurement": "Degree of the disease severity", "setting": "Magnaporthe grisea KJ201 [1]; [9]", "result": "2.8 ± 1.5"}, {"measurement": "Control value(%)", "setting": "Magnaporthe grisea KJ201 [1]; [9]", "result": "66.7 ± 18.2", "unit": "%"}, {"measurement": "Degree of the disease severity", "setting": "Magnaporthe grisea KJ201 [1]; 100 mM + Tween 80 (250 ppm) spray", "result": "1.1 ± 0.8"}, {"measurement": "Control value(%)", "setting": "Magnaporthe grisea KJ201 [1]; 100 mM + Tween 80 (250 ppm) spray, HCl", "result": "87.3 ± 9.7", "unit": "%"}, {"measurement": "Control value(%)", "setting": "Magnaporthe grisea KJ201 [1]; 100 mM + Tween 80 (250 ppm) spray, listed as vitamin B1 hydrochloride, HCl", "result": "about 87%"}, {"measurement": "Time after inoculation at which expression of all three defense genes was detected", "setting": "[2]; in vivo", "result": 24, "unit": "h"}, {"measurement": "Time after treatment at which expression of defense genes was detected", "setting": "[2]; in vivo", "result": 24, "unit": "h"}, {"measurement": "Expression of defense genes compared to groups A and B", "setting": "[2]; rice treated with 50 mM and then inoculated with leaf blight bacteria (group C), FIG. 3", "result": "considerably increased"}, {"measurement": "Expression of defense genes compared to groups A and B", "setting": "[3]; rice treated with 50 mM and then inoculated with rice blast fungus (group C)", "result": "considerably increased"}, {"measurement": "Time at which expression of defense genes was detected", "setting": "[3]; rice treated with 50 mM only (group B)", "result": 24, "unit": "h"}, {"measurement": "Time after inoculation at which expression of all three defense genes was detected", "setting": "[3]; rice treated with 50 mM, inoculated with rice blast fungus 24 hours later (group C)", "result": 24, "unit": "h"}, {"measurement": "Time by which all the defense genes were expressed", "setting": "[4]", "result": "≤ 1", "unit": "h"}, {"measurement": "Time after treatment at which all defense genes tested were induced to express", "setting": "[5]", "result": 4, "unit": "h"}, {"measurement": "Degree of the disease severity", "setting": "Magnaporthe grisea KJ201 [6]; seeds soaked at 20 mM", "result": "5.4 ± 3.2"}, {"measurement": "Control value(%)", "setting": "Magnaporthe grisea KJ201 [6]; seeds soaked at 20 mM", "result": "44.4 ± 32.8", "unit": "%"}, {"measurement": "Control value(%)", "setting": "Magnaporthe grisea KJ201 [6]; seeds soaked at 20 mM, listed as vitamin B1 hydrochloride", "result": 44, "unit": "%"}, {"measurement": "Degree of the disease severity", "setting": "Magnaporthe grisea KJ201 [6]; seeds soaked at 50 mM", "result": "2.3 ± 1.9"}, {"measurement": "Control value(%)", "setting": "Magnaporthe grisea KJ201 [6]; seeds soaked at 50 mM", "result": "76.8 ± 19.5", "unit": "%"}, {"measurement": "Control value(%)", "setting": "Magnaporthe grisea KJ201 [6]; seeds soaked at 50 mM, listed as vitamin B1 hydrochloride", "result": 77, "unit": "%"}, {"measurement": "Degree of the disease severity", "setting": "[7]; 5 mM + Tween 80 (250 ppm) spray, 1 week after inoculation", "result": "8.7 ± 0.6"}, {"measurement": "Control value(%)", "setting": "[7]; 5 mM + Tween 80 (250 ppm)", "result": "10.3 ± 6.2", "unit": "%"}, {"measurement": "Control value(%)", "setting": "[7]; 5 mM + Tween 80 (250 ppm), listed as vitamin B1 hydrochloride", "result": "about 30%"}, {"measurement": "Degree of the disease severity", "setting": "[7]; 10 mM + Tween 80 (250 ppm) spray, 1 week", "result": "4.2 ± 1.4"}, {"measurement": "Control value(%)", "setting": "[7]; 10 mM + Tween 80 (250 ppm)", "result": "56.3 ± 14.4", "unit": "%"}, {"measurement": "Control value(%)", "setting": "[7]; 10 mM + Tween 80 (250 ppm), listed as vitamin B1 hydrochloride", "result": "not less than 56%"}, {"measurement": "Control value(%)", "setting": "[7]; 20 mM + Tween 80 (250 ppm)", "result": "68.3 ± 25.9", "unit": "%"}, {"measurement": "Control value(%)", "setting": "[7]; 20 mM + Tween 80 (250 ppm), listed as vitamin B1 hydrochloride", "result": "≥ 68", "unit": "%"}, {"measurement": "Degree of the disease severity", "setting": "[7]; 50 mM + Tween 80 (250 ppm) spray, 1 week", "result": "0.2 ± 0.3"}, {"measurement": "Control value(%)", "setting": "[7]; 50 mM + Tween 80 (250 ppm)", "result": "97.6 ± 3.1", "unit": "%"}, {"measurement": "Control value(%)", "setting": "[7]; 50 mM + Tween 80 (250 ppm), listed as vitamin B1 hydrochloride", "result": "≥ 97", "unit": "%"}, {"measurement": "Degree of the disease severity", "setting": "[7]; 100 mM + Tween 80 (250 ppm) spray, 1 week", "result": "0.3 ± 0.1"}, {"measurement": "Control value(%)", "setting": "[7]; 100 mM + Tween 80 (250 ppm)", "result": "97.2 ± 1.0", "unit": "%"}, {"measurement": "Control value(%)", "setting": "[7]; 100 mM + Tween 80 (250 ppm), listed as vitamin B1 hydrochloride", "result": "≥ 97", "unit": "%"}]}
{"smiles": "Cc1ncc(C[n+]2csc(CCO)c2C)c(N)n1", "note": "[vitamin B1]", "values": [{"measurement": "Effectiveness for inducing the expression of defense genes in plants", "setting": "defense genes in plants", "result": "the most effective"}]}
